# According to patent EP4616867A1, “COMBINATION OF ENDOTHELIN RECEPTOR ANTAGONIST AND GLUCOCORTICOID FOR TREATING IGA NEPHROPATHY” (Sanreno Therapeutics (Shanghai) Limited, priority 2022, dated 2024):
# Tested on: IgA nephropathy model mice
# Assay: Efficacy of atrasentan, methylprednisolone and combinations in IgA nephropathy model mice (CFA-stimulated humanized IGHA1 mice); blood hIgA1, IgG, IgM
# Type: in vivo
# Conditions: IgAN mice; for IgG, Difference between pre-treatment and post-treatment value (post-treatment minus pre-treatment), Mean (SD) / IgG, Difference between pre-treatment and post-treatment value (post-treatment minus pre-treatment), Median (Q1 - Q3) / IgM, Difference between pre-treatment and post-treatment value (post-treatment minus pre-treatment), Mean (SD) / IgM, Difference between pre-treatment and post-treatment value (post-treatment minus pre-treatment), Median (Q1 - Q3) / hIgA1, Difference between pre-treatment and post-treatment value (post-treatment minus pre-treatment), Mean (SD) / hIgA1, Difference between pre-treatment and post-treatment value (post-treatment minus pre-treatment), Median (Q1 - Q3): 30 days gavage; for IgG, After treatment, Mean (SD) / IgG, After treatment, Median (Q1 - Q3) / IgM, After treatment, Mean (SD) / IgM, After treatment, Median (Q1 -Q3) / hIgA1, After treatment, Mean (SD) / hIgA1, After treatment, Median (Q1 - Q3): after 30 days gavage, atrasentan 15 mg/kg/day, methylprednisolone 5 mg/kg/day, dapagliflozin 1 mg/kg/day; for IgG, Before treatment, Mean (SD) / IgG, Before treatment, Median (Q1 - Q3) / IgM, Before treatment, Mean (SD) / IgM, Before treatment, Median (Q1 - Q3) / hIgA1, Before treatment, Mean (SD) / hIgA1, Before treatment, Median (Q1 - Q3): baseline before dosing
# Excerpt: The present invention will be further described below through examples, but the examples are not meant to limit the scope of the present invention in any way. For the measurement methods of various parameters in the examples, reference should be made to Wan F, Wang H, Wang M, Lü J, Zhao M, Zhang H. Sustained release of Lactobacillus casei cell wall extract can induce a continuous and stable IgA deposition model. […] Chimeric Fusion between Clostridium Ramosum IgA Protease and IgG Fc Provides Long-Lasting Clearance of IgA Deposits in Mouse Models of IgA Nephropathy. […] The above-mentioned documents are incorporated into this application in their entirety. […] Complete Freunds adjuvant (CFA) and phosphate buffer solution (PBS) were mixed thoroughly and emulsified at a ratio of 1:1 to obtain a CFA injection that was intraperitoneally injected into 8-week-old humanized IGHA1 mice constructed in step 1. Four times the mouse body weight (4w μl) was injected every 2 weeks, administering a total of 6 injections over a time period of about 2.5 months. • 2. In this experiment, the 8-week-old humanized IgA1 mice underwent an induction period of 2 to 5 months after the final injection of CFA. Table 1 […] Each group received intraperitoneal injections of CFA injection to create a model. Upon model completion, atrasentan, methylprednisolone and/or dapagliflozin were administered as outlined below. The control group was administered an equal amount of solvent (an aqueous solution of 0.5% (w/v) methylcellulose and 0.5% (v/v) Tween 80) by gavage for 30 days. Dosing method: atrasentan (15 mg/kg/day), methylprednisolone (5 mg/kg/day), dapagliflozin (1 mg/kg/day) were administered by gavage every morning for 30 days. When co-administered, the required medicines were mixed together in the appropriate proportion (the dose of each medicine was calculated according to mouse body weight) before administration by gavage. […] Prior to dosing, once every 2 weeks during the dosing period, and on day 30 of dosing, urine creatinine, urine protein level, and albumin to creatinine ratio (ACR) were measured, and the mice checked for the presence of haematuria. Prior to dosing and on day 30 of dosing, renal tissue pathology was scored according to the Oxford classification system, IgA and C3 deposition in renal tissue was measured by immunofluorescence assay, and mice in each group were examined for cardiac pathology.
smiles,measurement,value
"CCCCN(CCCC)C(=O)CN1C[C@H](c2ccc3c(c2)OCO3)[C@@H](C(=O)O)[C@@H]1c1ccc(OC)cc1 [Atrasentan (A), atrasentan]","IgG, Difference between pre-treatment and post-treatment value (post-treatment minus pre-treatment), Mean (SD)",1.69(0.35)
same,"IgG, Difference between pre-treatment and post-treatment value (post-treatment minus pre-treatment), Median (Q1 - Q3)",1.58(1.11 - 2.23)
same,"IgM, Difference between pre-treatment and post-treatment value (post-treatment minus pre-treatment), Mean (SD)",0.54(0.23)
same,"IgM, Difference between pre-treatment and post-treatment value (post-treatment minus pre-treatment), Median (Q1 - Q3)",0.38(0.07 - 0.69)
same,"hIgA1, Difference between pre-treatment and post-treatment value (post-treatment minus pre-treatment), Mean (SD)",5.95 (1.50)
same,"hIgA1, Difference between pre-treatment and post-treatment value (post-treatment minus pre-treatment), Median (Q1 - Q3)",4.96 (3.03 - 8.99)
same,"IgG, After treatment, Mean (SD)",5.04(0.10)
same,"IgG, After treatment, Median (Q1 - Q3)",5.06(4.74 - 5.25)
same,"IgM, After treatment, Mean (SD)",2.08(0.45)
same,"IgM, After treatment, Median (Q1 -Q3)",1.72(1.28 - 2.26)
same,"hIgA1, After treatment, Mean (SD)",15.99( 3.40)
same,"hIgA1, After treatment, Median (Q1 - Q3)",12.99 (7.93 - 23.80)
same,"IgG, Before treatment, Mean (SD)",3.35(0.36)
same,"IgG, Before treatment, Median (Q1 - Q3)",3.32(2.90 - 4.14)
same,"IgM, Before treatment, Mean (SD)",1.55(0.25)
same,"IgM, Before treatment, Median (Q1 - Q3)",1.31(1.02 - 1.97)
same,"hIgA1, Before treatment, Mean (SD)",10.04 (2.46)
same,"hIgA1, Before treatment, Median (Q1 - Q3)",7.88(4. 24 - 16.39)
"C[C@H]1C[C@@H]2[C@H]([C@@H](O)C[C@@]3(C)[C@H]2CC[C@]3(O)C(=O)CO)[C@@]2(C)C=CC(=O)C=C12 [Methylprednisolone (MP), methylprednisolone]","IgG, Difference between pre-treatment and post-treatment value (post-treatment minus pre-treatment), Mean (SD)",-0.10(0.20)
same,"IgG, Difference between pre-treatment and post-treatment value (post-treatment minus pre-treatment), Median (Q1 - Q3)",-0.09(-0.28 - 0.39)
same,"IgM, Difference between pre-treatment and post-treatment value (post-treatment minus pre-treatment), Mean (SD)",-0.04(0.08)
same,"IgM, Difference between pre-treatment and post-treatment value (post-treatment minus pre-treatment), Median (Q1 - Q3)",-0.05(-0.12 - 0.13)
same,"hIgA1, Difference between pre-treatment and post-treatment value (post-treatment minus pre-treatment), Mean (SD)",-0.03( 0.70)
same,"hIgA1, Difference between pre-treatment and post-treatment value (post-treatment minus pre-treatment), Median (Q1 - Q3)",-0.11 (-1.97 - 2.12)
same,"IgG, After treatment, Mean (SD)",4.75(0.81)
same,"IgG, After treatment, Median (Q1 - Q3)",3.56(3.22 - 7.06)
same,"IgM, After treatment, Mean (SD)",1.51(0.33)
same,"IgM, After treatment, Median (Q1 -Q3)",1.08(0.80 - 2.34)
same,"hIgA1, After treatment, Mean (SD)",6.63(0 .79)
same,"hIgA1, After treatment, Median (Q1 - Q3)",6.23( 4.78 - 8.97)
same,"IgG, Before treatment, Mean (SD)",4.85(0.94)
same,"IgG, Before treatment, Median (Q1 - Q3)",3.75(3.04 - 7.83)
same,"IgM, Before treatment, Mean (SD)",1.55(0.28)
same,"IgM, Before treatment, Median (Q1 - Q3)",1.31(0.90 - 2.22)
same,"hIgA1, Before treatment, Mean (SD)",6.66( 0.37)
same,"hIgA1, Before treatment, Median (Q1 - Q3)",6.69(6. 12 - 7.53)
